Numbered stars: 1 amine (or outer) side, 2 acyl side, 3 side chain; on linkers, the order of the positions; unused ones are H or OH. Square brackets hold non-standard residues; d marks the D form. Side chains are listed from the residue outwards. Peptide text beside a SMILES is read from it. * marks the point of attachment. C20 diacid = O=C(O)CCCCCCCCCCCCCCCCCCC(=O)*; C18 diacid = O=C(O)CCCCCCCCCCCCCCCCC(=O)*; γGlu = O=C(O)[C@H](CCC(=O)[*:2])N[*:1]; αMeL = CC(C)C[C@](C)(N)C(=O)O; AEEA = NCCOCCOCC(=O)O; Aib = CC(C)(N)C(=O)O
Columns and labels:
[1] = target: T1, human GLP-1R (Homo sapiens, UniProt P43220); test: GLP-1R HEK293 cell membrane [35S]GTPγS binding assay; type: biochemical; parameters: expressed in transfected cells; host or cells: HEK293 cells expressing human GLP-1R; membranes; conditions: HEK293 cell membranes expressing human GLP-1R, [35S]GTPγS binding; read-out: hGLP1R GTPgS Rel EC50 nM (SEM, n)
Procedure: The GLP-1 receptor is a G-protein coupled receptor that increases GTP-bound Gas upon ligand induced receptor activation. The potency of peptides to stimulate-GLP-1R induced activation of Gac is determined using preparations of purified membranes from HEK293 cells expressing the human GLP-1R. […] The test peptides are solubilized in DMSO and diluted in reaction buffer containing 5 μg of membrane in 20 mM HEPES pH 7.4, 50 mM NaCl, 5 mM MgCl2, 40 μg/ml saponin, 0.1% BSA, and […] ^35S-labeled GTPTS for 30 minutes at room temperature. Reactions are terminated by addition of 0.2% Nonidet β-40 detergent containing rabbit anti-Gas polyclonal antibody and 0.5 mg of anti-rabbit polyvinyltoluene beads. Mixtures are developed for 30 minutes, centrifuged at 80×g for 10 minutes, and counted for 1 minute/well using a MicroBeta TriLux instrument. Peptide concentration-response curves are fit to a four-parameter logistic model to calculate potency as an EC50.

[2] = target: T2, human Gcg receptor (Homo sapiens, UniProt P47871); test: [125I]-Glucagon binding (SPA), human Gcg receptor; conditions: read-out: hGLcgR Ki, nM (SEM, n)
T2 construct: expressed in transfected cells; crude membranes
How it was run: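 Cell pellets were lysed in hypotonic Tris buffer, pH 7.5, homogenized, and spun at low then high speed to give crude membranes. Ki was derived from the fitted IC50.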

[3] = target: human GLP-1 receptor (GLP-1R) (Homo sapiens, UniProt P43220); test: cAMP pharmacological functional assay in presence of casein, hGLP-1R; type: cell-based; conditions: HEK293 cells expressing hGLP-1R, 0.1% Casein, geometric mean; read-out: hGLP1R cAMP Rel EC50 nM (SEM, n)
[4] = target: T3, human GIP receptor (Homo sapiens, UniProt P48546); test: [125I]-GIP binding (SPA), human GIP receptor; conditions: read-out: hGIPR Ki, nM (SEM, n)
T3 construct: expressed in transfected cells; crude membranes
T3 sequence (P48546 22-466): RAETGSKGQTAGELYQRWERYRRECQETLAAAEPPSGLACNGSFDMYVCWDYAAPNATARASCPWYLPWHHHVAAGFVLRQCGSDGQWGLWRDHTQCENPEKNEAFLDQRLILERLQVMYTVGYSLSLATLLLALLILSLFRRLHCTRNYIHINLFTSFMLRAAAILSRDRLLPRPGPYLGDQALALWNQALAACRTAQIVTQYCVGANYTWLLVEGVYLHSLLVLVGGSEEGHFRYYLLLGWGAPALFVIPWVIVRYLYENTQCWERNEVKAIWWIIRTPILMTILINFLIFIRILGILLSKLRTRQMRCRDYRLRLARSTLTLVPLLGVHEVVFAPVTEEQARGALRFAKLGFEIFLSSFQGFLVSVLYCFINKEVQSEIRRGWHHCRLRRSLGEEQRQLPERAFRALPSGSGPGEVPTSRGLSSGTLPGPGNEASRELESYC

[5] = target: T1, human GLP-1R; test: [125I]-GLP-1 binding (SPA), human GLP-1 receptor; parameters: expressed in transfected cells; crude membranes; conditions: read-out: hGLP1R Ki, (nM) (SEM, n)
How it was run: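 Assay buffer: HEPES 25 mM, pH 7.4, CaCl2 2.5 mM, MgCl2 1 mM, with EDTA-free protease inhibitors. Receptor came from crude cell membranes prepared by homogenization and centrifugation at 4° C. IC50s came from four-parameter fits (maximum, minimum, IC50, Hill slope) and were expressed as Ki geometric means with SEM.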

[6] = target: T4, gastric inhibitory peptide receptor (GIPR) (Homo sapiens, UniProt P48546); test: cAMP pharmacological functional assay in presence of casein, hGIPR; type: cell-based; conditions: HEK293 cells expressing hGIPR, 0.1% Casein, geometric mean; read-out: hGIPR cAMP Rel EC50 nM (SEM, n)
T4 sequence (P48546 22-466): T3 sequence (P48546 22-466)

T1 sequence (P43220 24-463): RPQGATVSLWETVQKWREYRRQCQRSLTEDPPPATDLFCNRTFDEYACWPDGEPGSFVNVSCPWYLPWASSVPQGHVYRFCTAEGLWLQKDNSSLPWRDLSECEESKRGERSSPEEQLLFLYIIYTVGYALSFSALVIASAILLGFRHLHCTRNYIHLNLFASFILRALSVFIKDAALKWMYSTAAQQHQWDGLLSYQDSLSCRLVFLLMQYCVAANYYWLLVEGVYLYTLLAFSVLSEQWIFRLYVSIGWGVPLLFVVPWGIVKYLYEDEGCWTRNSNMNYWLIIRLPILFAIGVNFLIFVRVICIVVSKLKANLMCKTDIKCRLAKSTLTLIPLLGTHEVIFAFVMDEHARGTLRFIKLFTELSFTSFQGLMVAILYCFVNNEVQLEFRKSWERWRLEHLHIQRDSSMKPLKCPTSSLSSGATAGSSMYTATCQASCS
Sequence of human GLP-1 receptor (GLP-1R) (P43220 24-463): as above
T2 sequence (P47871 26-477): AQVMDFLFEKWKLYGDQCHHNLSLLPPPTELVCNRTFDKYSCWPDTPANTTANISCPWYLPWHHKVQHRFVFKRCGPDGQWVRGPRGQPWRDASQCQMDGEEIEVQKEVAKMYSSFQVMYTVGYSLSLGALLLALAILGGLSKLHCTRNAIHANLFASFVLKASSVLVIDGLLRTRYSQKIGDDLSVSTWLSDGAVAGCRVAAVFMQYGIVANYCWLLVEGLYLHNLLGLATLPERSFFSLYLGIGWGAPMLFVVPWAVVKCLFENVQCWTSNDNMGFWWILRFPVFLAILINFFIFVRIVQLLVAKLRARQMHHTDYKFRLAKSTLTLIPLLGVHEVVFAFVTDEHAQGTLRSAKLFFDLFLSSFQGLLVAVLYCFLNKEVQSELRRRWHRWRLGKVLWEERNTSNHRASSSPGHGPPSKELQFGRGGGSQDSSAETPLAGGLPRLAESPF

EC50 [1] [nM] | Ki [2] [nM] | EC50 [3] [nM] | Ki [4] [nM] | Ki [5] [nM] | EC50 [6] [nM] | SMILES
0.389 | 352 | 0.107 | 0.025 | 0.83 | 0.0225 | CC[C@H](C)[C@H](NC(=O)[C@H](CC(C)C)NC(=O)[C@H](Cc1ccc(O)cc1)NC(=O)[C@H](CCC(=O)O)NC(=O)[C@@H](NC(=O)[C@H](Cc1ccccc1)NC(=O)[C@H](C)NC(=O)C(C)(C)NC(=O)[C@H](CCC(N)=O)NC(=O)[C@H](C)NC(=O)[C@H](CCCCNC(=O)COCCOCCNC(=O)COCCOCCNC(=O)CC[C@H](NC(=O)CCCCCCCCCCCCCCCCC(=O)O)C(=O)O)NC(=O)[C@H](CCCCN)NC(=O)[C@H](CC(=O)O)NC(=O)[C@H](CC(C)C)NC(=O)[C@](C)(CC(C)C)NC(=O)[C@@H](NC(=O)[C@H](CO)NC(=O)[C@H](Cc1ccc(O)cc1)NC(=O)[C@H](CC(=O)O)NC(=O)[C@H](CO)NC(=O)[C@@H](NC(=O)[C@H](Cc1ccccc1)NC(=O)[C@@H](NC(=O)CNC(=O)[C@H](CCC(=O)O)NC(=O)C(C)(C)NC(=O)[C@@H](N)Cc1ccc(O)cc1)[C@@H](C)O)[C@@H](C)O)[C@@H](C)CC)[C@@H](C)CC)C(=O)N[C@@H](C)C(=O)NCC(=O)NCC(=O)N1CCC[C@H]1C(=O)N[C@@H](CO)C(=O)N[C@@H](CO)C(=O)NCC(N)=O [Example 305] (H-Y[Aib]EGTFTSDYSI[αMeL]LDKK([AEEA-AEEA-γGlu-C18 diacid])AQ[Aib]AFIEYLIAGGPSSG-NH2)
0.378 | > 1040 | 0.0711 | 0.0349 | 2.86 | 0.0191 | CC[C@H](C)[C@H](NC(=O)[C@H](CC(C)C)NC(=O)[C@H](Cc1ccc(O)cc1)NC(=O)[C@H](CCC(=O)O)NC(=O)[C@@H](NC(=O)[C@H](Cc1ccccc1)NC(=O)[C@H](CCC(=O)O)NC(=O)C(C)(C)NC(=O)[C@H](CCC(N)=O)NC(=O)[C@H](C)NC(=O)[C@H](CCCCNC(=O)COCCOCCNC(=O)COCCOCCNC(=O)CC[C@H](NC(=O)CCCCCCCCCCCCCCCCC(=O)O)C(=O)O)NC(=O)[C@H](CCCCN)NC(=O)[C@H](CC(=O)O)NC(=O)[C@H](CC(C)C)NC(=O)[C@](C)(CC(C)C)NC(=O)[C@@H](NC(=O)[C@H](CO)NC(=O)[C@H](Cc1ccc(O)cc1)NC(=O)[C@H](CC(=O)O)NC(=O)[C@H](CO)NC(=O)[C@@H](NC(=O)[C@H](Cc1ccccc1)NC(=O)[C@@H](NC(=O)CNC(=O)[C@H](CCC(=O)O)NC(=O)C(C)(C)NC(=O)[C@@H](N)Cc1ccc(O)cc1)[C@@H](C)O)[C@@H](C)O)[C@@H](C)CC)[C@@H](C)CC)C(=O)N[C@@H](C)C(=O)NCC(=O)NCC(=O)N1CCC[C@H]1C(=O)N[C@@H](CO)C(=O)N[C@@H](CO)C(=O)NCC(N)=O [Example 306] (H-Y[Aib]EGTFTSDYSI[αMeL]LDKK([AEEA-AEEA-γGlu-C18 diacid])AQ[Aib]EFIEYLIAGGPSSG-NH2)
0.536 | 253 | 0.172 | 0.0215 | 2.63 | 0.0948 | CC[C@H](C)[C@H](NC(=O)[C@H](CC(C)C)NC(=O)[C@H](Cc1ccc(O)cc1)NC(=O)[C@H](CCC(=O)O)NC(=O)[C@@H](NC(=O)[C@H](Cc1ccccc1)NC(=O)[C@H](C)NC(=O)C(C)(C)NC(=O)[C@H](CCC(N)=O)NC(=O)[C@H](C)NC(=O)[C@H](CCCCNC(=O)COCCOCCNC(=O)COCCOCCNC(=O)CC[C@H](NC(=O)CCCCCCCCCCCCCCCCCCC(=O)O)C(=O)O)NC(=O)[C@H](CCCCN)NC(=O)[C@H](CC(=O)O)NC(=O)[C@H](CC(C)C)NC(=O)[C@H](CC(C)C)NC(=O)[C@@H](NC(=O)[C@H](CO)NC(=O)[C@H](Cc1ccc(O)cc1)NC(=O)[C@H](CC(=O)O)NC(=O)[C@H](CO)NC(=O)[C@@H](NC(=O)[C@H](Cc1ccccc1)NC(=O)[C@@H](NC(=O)CNC(=O)[C@H](CCC(=O)O)NC(=O)C(C)(C)NC(=O)[C@@H](N)Cc1ccc(O)cc1)[C@@H](C)O)[C@@H](C)O)[C@@H](C)CC)[C@@H](C)CC)C(=O)N[C@@H](C)C(=O)NCC(=O)NCC(=O)N1CCC[C@H]1C(=O)N[C@@H](CO)C(=O)N[C@@H](CO)C(=O)NCC(N)=O [Example 317] (H-Y[Aib]EGTFTSDYSILLDKK([AEEA-AEEA-γGlu-C20 diacid])AQ[Aib]AFIEYLIAGGPSSG-NH2; N-terminus assumed)
0.415 | 730 | 0.124 | 0.0452 | 7.52 | 0.0547 | CC[C@H](C)[C@H](NC(=O)[C@H](CC(C)C)NC(=O)[C@H](Cc1ccc(O)cc1)NC(=O)[C@H](CCC(=O)O)NC(=O)[C@@H](NC(=O)[C@H](Cc1ccccc1)NC(=O)[C@H](CCC(=O)O)NC(=O)C(C)(C)NC(=O)[C@H](CCC(N)=O)NC(=O)[C@H](C)NC(=O)[C@H](CCCCNC(=O)COCCOCCNC(=O)COCCOCCNC(=O)CC[C@H](NC(=O)CCCCCCCCCCCCCCCCCCC(=O)O)C(=O)O)NC(=O)[C@H](CCCCN)NC(=O)[C@H](CC(=O)O)NC(=O)[C@H](CC(C)C)NC(=O)[C@H](CC(C)C)NC(=O)[C@@H](NC(=O)[C@H](CO)NC(=O)[C@H](Cc1ccc(O)cc1)NC(=O)[C@H](CC(=O)O)NC(=O)[C@H](CO)NC(=O)[C@@H](NC(=O)[C@H](Cc1ccccc1)NC(=O)[C@@H](NC(=O)CNC(=O)[C@H](CCC(=O)O)NC(=O)C(C)(C)NC(=O)[C@@H](N)Cc1ccc(O)cc1)[C@@H](C)O)[C@@H](C)O)[C@@H](C)CC)[C@@H](C)CC)C(=O)N[C@@H](C)C(=O)NCC(=O)NCC(=O)N1CCC[C@H]1C(=O)N[C@@H](CO)C(=O)N[C@@H](CO)C(=O)NCC(N)=O [Example 318] (H-Y[Aib]EGTFTSDYSILLDKK([AEEA-AEEA-γGlu-C20 diacid])AQ[Aib]EFIEYLIAGGPSSG-NH2; N-terminus assumed)

SMILES | EC50 [1] [nM] | Ki [2] [nM] | EC50 [3] [nM] | Ki [4] [nM] | Ki [5] [nM] | EC50 [6] [nM]
CC[C@H](C)[C@H](NC(=O)[C@H](CC(C)C)NC(=O)[C@H](Cc1ccc(O)cc1)NC(=O)[C@H](CCC(=O)O)NC(=O)[C@@H](NC(=O)[C@H](Cc1ccccc1)NC(=O)[C@H](CCC(=O)O)NC(=O)C(C)(C)NC(=O)[C@H](CCC(N)=O)NC(=O)[C@H](C)NC(=O)[C@H](CCCCNC(=O)COCCOCCNC(=O)COCCOCCNC(=O)CC[C@H](NC(=O)CCCCCCCCCCCCCCCCCCC(=O)O)C(=O)O)NC(=O)[C@H](CCCCN)NC(=O)[C@H](CC(=O)O)NC(=O)[C@H](CC(C)C)NC(=O)[C@H](CC(C)C)NC(=O)[C@@H](NC(=O)[C@H](CO)NC(=O)[C@H](Cc1ccc(O)cc1)NC(=O)[C@H](CC(=O)O)NC(=O)[C@H](CO)NC(=O)[C@@H](NC(=O)[C@H](Cc1ccccc1)NC(=O)[C@@H](NC(=O)CNC(=O)[C@H](CCC(=O)O)NC(=O)C(C)(C)NC(=O)[C@@H](N)Cc1ccc(O)cc1)[C@@H](C)O)[C@@H](C)O)[C@@H](C)CC)[C@@H](C)CC)C(=O)N[C@@H](C)C(=O)NCC(=O)NCC(=O)N1CCC[C@H]1C(=O)N[C@@H](CO)C(=O)N[C@@H](CO)C(=O)NCC(=O)N[C@@H](C)C(=O)N1CCC[C@H]1C(=O)N1CCC[C@H]1C(=O)N1CCC[C@H]1C(=O)N[C@@H](CO)C(N)=O [Example 319] (H-Y[Aib]EGTFTSDYSILLDKK([AEEA-AEEA-γGlu-C20 diacid])AQ[Aib]EFIEYLIAGGPSSGAPPPS-NH2) | 0.657 | > 984 | 0.113 | 0.0349 | 3.61 | 0.054
